# Measured values from PubChem BioAssay (NCI).
# “And” between values parts separate entries of the source, which are not always exact repeats. Equal entries are not always repeated.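 Test compounds were applied to cells in 96-well plates for 48 hours at 5 doses. Abbreviation: GI50, concentration required for 50% inhibition of growth. Definition used: TGI = concentration required for complete inhibition of growth.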
# What was measured:
# Assay in all cases: NCI tumour cell line growth inhibition, 48 h
# [1] = system: ACHN renal
# [2] = system: COLO 205 colon
# [3] = system: HCC-2998 colon
# [4] = system: MALME-3M melanoma
# [5] = system: MOLT-4 leukemia
# [6] = system: RPMI-8226 leukemia
# [7] = system: SF-295 CNS
# [8] = system: SK-OV-3 ovarian
# [9] = system: SN12C renal
# [10] = system: UO-31 renal
SMILES,GI50 [1],TGI [1],GI50 [2],TGI [2] [µM],GI50 [3],TGI [3],GI50 [4] [µM],TGI [4],GI50 [5],TGI [5],GI50 [6],TGI [6],GI50 [7],TGI [7],GI50 [8],TGI [8],GI50 [9],TGI [9],GI50 [10],TGI [10]
C=C1c2ccccc2C(=O)c2c1c1c(C(=O)OC)c(OC(=O)OCc3ccc([N+](=O)[O-])cc3)ccc1n2Cc1ccccc1,55.9 µM,> 100 µM,32.4 µM,> 100,16.7 µM,39 µM,36,> 100 µM,2.6 µM,11.6 µM,2.3 µM,13.1 µM,33.7 µM,> 100 µM,23.8 µM,57.6 µM,11 µM,42.6 µM,8.28 µM,45.4 µM
CCOC(=O)C1C=C2O[C@@H]3OC4(CCCCC4)O[C@@H]3C2C2C(=O)CCC(=O)[C@@]12C(=O)OC (some centres undefined),,> 100 µM,,> 100,,> 100 µM,,> 100 µM,,> 100 µM,,> 100 µM,,> 100 µM,,> 100 µM,,> 100 µM,,> 100 µM
O=C(Nc1cccc(-n2cc(-c3ccncc3)c(-c3ccc(O)c(Cl)c3)n2)c1)c1ccc2c(c1)OCCO2,7.38 µM,> 100 µM,89.2 µM,> 100,> 100 µM,> 100 µM,> 100,> 100 µM,4.88 µM,> 100 µM,2.19 µM,> 100 µM,4.88 µM,> 100 µM,> 100 µM,> 100 µM,55.7 µM,> 100 µM,4.03 µM,> 100 µM
C=CC(COC(=O)C(C)(C)OC(C)=O)c1ccc(OC(=O)C(C)C)c(OC)c1 (centres undefined),,8.77 µM,,7.05,,10.5 µM,,8.78 µM,,20.6 µM,,> 100 µM,,19.9 µM,,30.8 µM,,> 37 µM,,21.1 µM
O=C1/C=C/[C@@H](O)[C@@H]2C[C@@H](O)C[C@H]2/C=C/CCC[C@H](CCc2ccc3ncccc3c2)O1,0.388 µM,> 29.7 µM,0.19 µM,0.343,0.252 µM,4.99 µM,0.208,0.678 µM,0.289 µM,1.54 µM,0.243 µM,5.89 µM,0.351 µM,> 100 µM,0.336 µM,> 32.1 µM,0.334 µM,> 100 µM,0.299 µM,20 µM
CN(C)C(=O)OCc1nc2c(N3CCOCC3)nc(-c3ccccc3)nc2n1C,0.415 µM,1.43 µM,1.32 µM,2.97,1.56 µM,3.1 µM,1.57,2.96 µM,0.497 µM,3.14 µM,0.189 µM,0.675 µM,1.65 µM,3.08 µM,4.06 µM,13.5 µM,0.912 µM,2.31 µM,0.373 µM,1.55 µM
Cc1cc(-c2nnc(/C=C/c3ccc4c(c3)OCO4)o2)n[nH]1,27.2 µM,> 50 µM,15.4 µM,> 50,10.7 µM,> 50 µM,8.96,> 50 µM,3.39 µM,39.5 µM,2.99 µM,32 µM,7.04 µM,38 µM,21.1 µM,> 50 µM,30 µM,> 50 µM,14.7 µM,> 50 µM
CCCCCCCCCCCCCCCCCCNCc1ccc(Cl)cc1,2.15 µM,5.54 µM,1.96 µM,4,4.58 µM,18.9 µM,7.37,22.6 µM,1.99 µM,4.55 µM,2.24 µM,5.71 µM,12.6 µM,28.8 µM,4.02 µM,16.9 µM,3.63 µM,13.8 µM,1.6 µM,3.45 µM
Cc1cc(C(=O)Nc2n[nH]c3ccccc23)n[nH]1,> 100 µM,> 100 µM,> 100 µM,> 100,50.6 µM,> 100 µM,> 100,> 100 µM,> 100 µM,> 100 µM,> 100 µM,> 100 µM,> 100 µM,> 100 µM,> 100 µM,> 100 µM,> 100 µM,> 100 µM,50.4 µM,> 100 µM
C[C@]12CC[C@@H]3c4ccc(O)cc4CC[C@H]3[C@@H]1CC[C@@H]2NS(=O)(=O)c1ccc(Br)cc1,3.17 µM,11.1 µM,2.12 µM,4.04,3.21 µM,10.5 µM,1.93,4.36 µM,3.26 µM,28.7 µM,2.68 µM,7.37 µM,1.75 µM,3.29 µM,4.53 µM,13.6 µM,1.79 µM,3.5 µM,1.76 µM,4.35 µM
O=C(O)c1cc2ccccc2c2c3c(ccc12)OCO3,221 µM,> 1000 µM,171 µM,368,225 µM,763 µM,140,361 µM,192 µM,513 µM,139 µM,738 µM,157 µM,618 µM,236 µM,739 µM,174 µM,> 1000 µM,116 µM,484 µM
N#Cc1ccc(-c2c(-c3ncn[nH]3)sc(N3CCOCC3)c2C#N)c(F)c1,0.398 µM,,0.687 µM,15.6,1.08 µM,17.2 µM,0.275,6 µM,0.484 µM,27.6 µM,4.5 µM,48.6 µM,0.426 µM,11.4 µM,0.197 µM,5.69 µM,0.835 µM,> 100 µM,0.191 µM,11.2 µM
NCCCCCNc1noc(Cc2c[nH]c3cc(Br)ccc23)n1,9.02 µM,21.7 µM,1.52 µM,3.22,2.84 µM,14.7 µM,2.59,22.7 µM,2.44 µM,18.6 µM,2.88 µM,25.2 µM,2.53 µM,25.3 µM,2.46 µM,12.5 µM,3.54 µM,16.9 µM,3.46 µM,25.3 µM
C[N+](C)(C)CC1CCC(C[N+](C)(C)C)C1=O (centres undefined),,3.49 µM,0.457 µM,1.58,,22.5 µM,,2.28 µM,0.25 µM,0.801 µM,,27.2 µM,,35.9 µM,,42 µM,,8.18 µM,,8.51 µM
COC(=O)CCC(=O)N1C/C(=C\c2ccccc2)C(=O)/C(=C/c2ccccc2)C1,,3.8 µM,,3.67,,3.06 µM,,4.62 µM,,7.77 µM,,> 100 µM,,5.87 µM,,13.9 µM,,3.44 µM,,3.97 µM
N#Cc1ccc(/C=C(/C(=O)c2ccccc2)c2ccccc2)cc1,,33.1 µM,,37.3,,30.6 µM,,29.1 µM,,10.4 µM,,8.82 µM,,35.2 µM,,> 54.6 µM,,25 µM,,28.9 µM
S=c1o[nH]c(-c2ccccc2)c1C=Nc1ccccc1,,> 100 µM,,> 100,,> 100 µM,,> 100 µM,,> 100 µM,,> 100 µM,,> 100 µM,,> 100 µM,,> 100 µM,,> 100 µM
CC(C)c1ccc(C2NC(=S)NC3=C2c2ccccc2C3=O)cc1 (centres undefined),,> 55.9 µM,,> 59.2,,> 51.7 µM,,> 62.9 µM,,> 65 µM,,> 62.4 µM,,> 52.4 µM,,> 61.7 µM,,> 61.4 µM,,> 58.2 µM
COc1cc(-n2cc(-c3ccccc3)[nH]c2=O)cc(OC)c1OC,45.5 µM,> 100 µM,> 100 µM,> 100,> 100 µM,> 100 µM,33.7,> 100 µM,> 100 µM,> 100 µM,> 100 µM,> 100 µM,37.8 µM,> 100 µM,34.3 µM,> 100 µM,47.6 µM,> 100 µM,37.9 µM,> 100 µM
CN1CCN(c2ccc(OC(F)(F)F)c(Nc3ncc4c(n3)-c3c(c(C(N)=O)nn3CCO)CC4)c2)CC1,0.43 µM and 0.814 µM,20.2 µM and > 10 µM,0.0255 µM and 0.0275 µM,,0.0487 µM and 0.174 µM,18.7 µM and > 4.38 µM,,29.8 µM and > 10 µM,0.0349 µM and 0.0615 µM,18.5 µM and > 10 µM,0.774 µM and 0.324 µM,35 µM and > 10 µM,0.0575 µM and 0.244 µM,18.6 µM and > 10 µM,0.108 µM and 0.124 µM,30.6 µM and > 10 µM,1.13 µM and 0.721 µM,20.7 µM and > 10 µM,2.88 µM and 2.28 µM,38.2 µM and > 9.18 µM
Cn1c(=O)nc2n(-c3ccc(Cl)cc3)c(-c3ccccc3)c(-c3ccccc3)nc-2c1=O,,49.8 µM,,> 100,,> 100 µM,,> 100 µM,,53.4 µM,,71.1 µM,,> 100 µM,,> 100 µM,,> 100 µM,,60.7 µM
Nc1ccccc1C#C/C=C\C#CC#C/C=C\C#Cc1ccccc1N,5.38 µM,40.4 µM,13.5 µM,35.9,2.25 µM,8.03 µM,11.7,67.1 µM,1.01 µM,18.4 µM,0.515 µM,5.82 µM,5.23 µM,30.2 µM,22.8 µM,> 100 µM,3.05 µM,16.4 µM,1.94 µM,16.8 µM
O=[N+]([O-])c1cccc(-c2nc(-c3ccc(Cl)cc3Cl)cn2-c2ccccc2)c1,1.3 µM,5.42 µM,0.485 µM,0.987,2.99 µM,> 17.6 µM,0.704,2.11 µM,3.21 µM,> 33.3 µM,0.00546 µM,1.79 µM,0.452 µM,0.976 µM,3.06 µM,29.9 µM,1.19 µM,> 7.91 µM,1.19 µM,7.29 µM
O=C1/C(=C/c2ccc3c(c2)OCCO3)CCC/C1=C\c1ccc2c(c1)OCCO2,,> 100 µM,,46.8,,> 100 µM,,> 100 µM,,> 100 µM,,45.8 µM,,57.3 µM,,> 100 µM,,54.9 µM,,> 100 µM
Cc1ccc(Nc2cc(Cl)c([N+](=O)[O-])cc2[N+](=O)[O-])cc1,4.73 µM,16.2 µM,2.11 µM,3.92,2.26 µM,4.81 µM,5.72,14 µM,3.87 µM,> 52.4 µM,2.92 µM,9.45 µM,14.4 µM,34 µM,4.55 µM,13.1 µM,4.1 µM,14.6 µM,4.71 µM,17.5 µM
C=C1C(=O)OC2C1C(OC(=O)/C(C)=C/C)CC(O)(CCl)C1C(O)C=C(C)C21O (centres undefined),,18.2 µM,,18.5,,25.6 µM,,8.9 µM,,20.6 µM,,30.6 µM,,> 100 µM,,> 100 µM,,29.4 µM,,33.9 µM
Cc1ccc(C(=O)NCCCOc2ccc(N3C(N)=NC(N)=NC3(C)C)cc2Cl)cc1S(=O)(=O)F,> 100 µM,> 100 µM,38.1 µM,> 100,24 µM,> 100 µM,> 100,> 100 µM,> 100 µM,> 100 µM,24.7 µM,> 100 µM,> 100 µM,> 100 µM,> 100 µM,> 100 µM,6.54 µM,> 100 µM,> 100 µM,> 100 µM
Cc1ccccc1NC(=O)/C=N/O,,> 100 µM,,> 100,,> 100 µM,,> 100 µM,,> 100 µM,,> 100 µM,,> 100 µM,,> 100 µM,,> 100 µM,,> 100 µM
Cc1cccc(C)c1NC(=O)CCC/C(CC(=O)c1ccc(F)cc1)=N\NC(=O)C(=O)NN,,> 100 µM,,> 100,,> 100 µM,,> 100 µM,,> 100 µM,,> 100 µM,,> 100 µM,,> 100 µM,,> 100 µM,,> 100 µM
OB(O)c1ccccc1C#Cc1ccccc1B(O)O,,> 100 µM,,35.1,,40.9 µM,,44.2 µM,,> 100 µM,,68.8 µM,,75.9 µM,,> 100 µM,,68 µM,,60.5 µM
